From article PMC3269340, “Pharmacokinetics of memantine in rats and mice” (PLoS Currents, 2012)

Target: T1, OCT2 (Homo sapiens, UniProt O15244)
T1 construct: expressed in transfected cells; host or cells: CHO cells
T1 sequence (O15244 1-555): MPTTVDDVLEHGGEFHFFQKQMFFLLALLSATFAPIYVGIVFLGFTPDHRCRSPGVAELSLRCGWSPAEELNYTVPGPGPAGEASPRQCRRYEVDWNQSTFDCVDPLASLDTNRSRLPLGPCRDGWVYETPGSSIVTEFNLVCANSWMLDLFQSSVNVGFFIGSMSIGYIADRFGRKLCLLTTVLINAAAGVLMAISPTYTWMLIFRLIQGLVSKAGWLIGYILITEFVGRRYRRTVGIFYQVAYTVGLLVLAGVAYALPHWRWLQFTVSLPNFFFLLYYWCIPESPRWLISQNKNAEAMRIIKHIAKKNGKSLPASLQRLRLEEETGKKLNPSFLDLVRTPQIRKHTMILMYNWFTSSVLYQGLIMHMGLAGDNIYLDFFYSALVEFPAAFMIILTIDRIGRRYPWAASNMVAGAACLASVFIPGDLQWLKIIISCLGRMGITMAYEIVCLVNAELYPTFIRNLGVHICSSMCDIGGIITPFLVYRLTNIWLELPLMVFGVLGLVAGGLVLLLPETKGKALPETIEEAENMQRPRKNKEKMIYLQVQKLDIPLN
Test: Indirect uptake transporter assay, OCT2
Type: in vitro ADME
Description: To determine whether memantine is an inhibitor of the human OATP2B1 (OATP-B), OCT1, OCT2, OAT3, PEPT1, PEPT2 uptake transporters. The standard uptake transporter assay is an indirect, inhibitory-type screening assay, performed with cold test article, which in this case was memantine. It provides information on any interaction (substrate or inhibitor) between selected uptake transporters and memantine that would affect the transport of the reporter compound. […] A radiolabeled reporter substrate is transported into the cells transfected with the selected human uptake transporter, and the inhibitory effect of memantine on the transport of this reporter substrate is measured. Values are presented on a relative scale; 100% defined as transport in the presence of the solvent and without memantine (no inhibition), and 0% defined as transport detected without transporter activity. IC50 is defined as the concentration required to inhibit the transport of the reporter substrate by 50%. […]
After the experiment cells were rinsed with 2 x 100µl of Krebs-Henseleit buffer and lysed with 50 µl of 0.1M NaOH. ^3H-estrone-3-sulfate, ^14C-TEA, ^14C-metformin and ^3H-Gly-Sar transport was determined by total radioactivity by transferring an aliquot (35µl) from each well to a vial containing liquid scintillant for analysis.

**Q.** How did the IC50 (OCT2-mediated metformin uptake) turn out when `CC12CC3CC(C)(C1)CC(N)(C3)C2` [memantine] was run?
**A.** The IC50 was 8.9 µM.

**Q.** And the IC50 (OCT2, probe in Table 5: Gly-Sar (1.8 μM), methods and text: metformin)?
**A.** Its IC50 is 8.86 µM.
